Measured values from patent US10112899B2 (ViiV HEALTHCARE UK LIMITED, priority 2014, dated 2018).

System: HIV in the HTLV-1 transformed cell line MT-4
Assay: organism not typed
Assay type: cell-based
Conditions: MT4, 96 h, MT-4 cells; luciferase/cell titer glo readout after 96 hours; 10 point dose response

Cc1ccc(C)c(C(=O)N2Cc3c(C)c(-c4cc(F)c5c(c4C)CCCO5)c([C@H](OC(C)(C)C)C(=O)O)c(C)c3C2)c1 (atropisomer, axis not shown; (M)) [Example 157, (S)-2-(tert-butoxy)-2-(2-(2,5-dimethylbenzoyl)-6-((M)-8-fluoro-5-methylchroman-6-yl)-4,7-dimethylisoindolin-5-yl)acetic acid]
IC50: 3 nM

Cc1c(-c2c(C)c3c(c(C)c2[C@H](OC(C)(C)C)C(=O)O)CN(C(=O)c2ccccc2)C3)cc(F)c2c1CCCO2 (atropisomer, axis not shown; (M)) [Example 158, (S)-2-(2-benzoyl-6-((M)-8-fluoro-5-methylchroman-6-yl)-4,7-dimethylisoindolin-5-yl)-2-(tert-butoxy)acetic acid]
IC50: 2 nM

COc1cccc(C(=O)N2Cc3c(C)c(-c4cc(F)c5c(c4C)CCCO5)c([C@H](OC(C)(C)C)C(=O)O)c(C)c3C2)c1 (atropisomer, axis not shown; (M)) [Example 159, (S)-2-(tert-butoxy)-2-(6-((M)-8-fluoro-5-methylchroman-6-yl)-2-(3-methoxybenzoyl)-4,7-dimethylisoindolin-5-yl)acetic acid]
IC50: 2 nM

COc1ccc(C)c(C(=O)N2Cc3c(C)c(-c4cc(F)c5c(c4C)CCCO5)c([C@H](OC(C)(C)C)C(=O)O)c(C)c3C2)c1 (atropisomer, axis not shown; (M)) [Example 160, (S)-2-(tert-butoxy)-2-(6-((M)-8-fluoro-5-methylchroman-6-yl)-2-(5-methoxy-2-methylbenzoyl)-4,7-dimethylisoindolin-5-yl)acetic acid]
IC50: 4 nM

Cc1c(-c2c(C)c3c(c(C)c2[C@H](OC(C)(C)C)C(=O)O)CN(C(=O)c2cccc4c2CCC4)C3)cc(F)c2c1CCCO2 (atropisomer, axis not shown; (M)) [Example 161, (S)-2-(tert-butoxy)-2-(2-(2,3-dihydro-1H-indene-4-carbonyl)-6-((M)-8-fluoro-5-methylchroman-6-yl)-4,7-dimethylisoindolin-5-yl)acetic acid]
IC50: 3 nM

Cc1c(-c2c(C)c3c(c(C)c2[C@H](OC(C)(C)C)C(=O)O)CN(C(=O)c2cccc4c2OC(F)(F)O4)C3)cc(F)c2c1CCCO2 (atropisomer, axis not shown; (M)) [Example 162, (S)-2-(tert-butoxy)-2-((M)-2-(2,2-difluorobenzo[d][1,3]dioxole-4-carbonyl)-6-(8-fluoro-5-methylchroman-6-yl)-4,7-dimethylisoindolin-5-yl)acetic acid]
IC50: 2 nM

Cc1c(-c2c(C)c3c(c(C)c2[C@H](OC(C)(C)C)C(=O)O)CN(C(=O)c2cccc4ccccc24)C3)cc(F)c2c1CCCO2 (atropisomer, axis not shown; (M)) [Example 168, (S)-2-((M)-2-(1-naphthoyl)-6-(8-fluoro-5-methylchroman-6-yl)-4,7-dimethylisoindolin-5-yl)-2-(tert-butoxy)acetic acid]
IC50: 11 nM

Cc1c(-c2c(C)c3c(c(C)c2[C@H](OC(C)(C)C)C(=O)O)CN(C(=O)c2cccc4ccoc24)C3)cc(F)c2c1CCCO2 (atropisomer, axis not shown; (M)) [Example 169, (S)-2-((M)-2-(benzofuran-7-carbonyl)-6-(8-fluoro-5-methylchroman-6-yl)-4,7-dimethylisoindolin-5-yl)-2-(tert-butoxy)acetic acid]
IC50: 2 nM

Cc1c(-c2c(C)c3c(c(C)c2[C@H](OC(C)(C)C)C(=O)O)CN(C(=O)c2cc(F)cc(F)c2)C3)cc(F)c2c1CCCO2 (atropisomer, axis not shown; (M)) [Example 170, (S)-2-(tert-butoxy)-2-((M)-2-(3,5-difluorobenzoyl)-6-(8-fluoro-5-methylchroman-6-yl)-4,7-dimethylisoindolin-5-yl)acetic acid]
IC50: 2 nM

Cc1c(-c2c(C)c3c(c(C)c2[C@H](OC(C)(C)C)C(=O)O)CN(C(=O)c2ccc(F)c(Cl)c2)C3)cc(F)c2c1CCCO2 (atropisomer, axis not shown; (M)) [Example 171, (S)-2-(tert-butoxy)-2-((M)-2-(3-chloro-4-fluorobenzoyl)-6-(8-fluoro-5-methylchroman-6-yl)-4,7-dimethylisoindolin-5-yl)acetic acid]
IC50: 2 nM

Cc1c(Cl)cccc1C(=O)N1Cc2c(C)c(-c3cc(F)c4c(c3C)CCCO4)c([C@H](OC(C)(C)C)C(=O)O)c(C)c2C1 (atropisomer, axis not shown; (M)) [Example 172, (S)-2-(tert-butoxy)-2-((M)-2-(3-chloro-2-methylbenzoyl)-6-(8-fluoro-5-methylchroman-6-yl)-4,7-dimethylisoindolin-5-yl)acetic acid]
IC50: 7 nM

Cc1c(-c2c(C)c3c(c(C)c2[C@H](OC(C)(C)C)C(=O)O)CN(C(=O)c2cc(F)c(F)c(F)c2)C3)cc(F)c2c1CCCO2 (atropisomer, axis not shown; (M)) [Example 173, (S)-2-(tert-butoxy)-2-((M)-6-(8-fluoro-5-methylchroman-6-yl)-4,7-dimethyl-2-(3,4,5-trifluorobenzoyl)isoindolin-5-yl)acetic acid]
IC50: 3 nM

Cc1c(-c2c(C)c3c(c(C)c2[C@H](OC(C)(C)C)C(=O)O)CN(C(=O)c2ccc(F)cc2)C3)cc(F)c2c1CCCO2 (atropisomer, axis not shown; (M)) [Example 174, (S)-2-(tert-butoxy)-2-((M)-6-(8-fluoro-5-methylchroman-6-yl)-2-(4-fluorobenzoyl)-4,7-dimethylisoindolin-5-yl)acetic acid]
IC50: 4 nM

Cc1c(-c2c(C)c3c(c(C)c2[C@H](OC(C)(C)C)C(=O)O)CN(C(=O)c2cc(F)c(Cl)c(F)c2)C3)cc(F)c2c1CCCO2 (atropisomer, axis not shown; (M)) [Example 175, (S)-2-(tert-butoxy)-2-((M)-2-(4-chloro-3,5-difluorobenzoyl)-6-(8-fluoro-5-methylchroman-6-yl)-4,7-dimethylisoindolin-5-yl)acetic acid]
IC50: 5 nM

Cc1c(-c2c(C)c3c(c(C)c2[C@H](OC(C)(C)C)C(=O)O)CN(C(=O)c2cccc(F)c2F)C3)cc(F)c2c1CCCO2 (atropisomer, axis not shown; (M)) [Example 176, (S)-2-(tert-butoxy)-2-((M)-2-(2,3-difluorobenzoyl)-6-(8-fluoro-5-methylchroman-6-yl)-4,7-dimethylisoindolin-5-yl)acetic acid]
IC50: 4 nM

Cc1ccc(F)cc1C(=O)N1Cc2c(C)c(-c3cc(F)c4c(c3C)CCCO4)c([C@H](OC(C)(C)C)C(=O)O)c(C)c2C1 (atropisomer, axis not shown; (M)) [Example 177, (S)-2-(tert-butoxy)-2-((M)-2-(5-fluoro-2-methylbenzoyl)-6-(8-fluoro-5-methylchroman-6-yl)-4,7-dimethylisoindolin-5-yl)acetic acid]
IC50: 2 nM

Cc1cc(F)cc(C(=O)N2Cc3c(C)c(-c4cc(F)c5c(c4C)CCCO5)c([C@H](OC(C)(C)C)C(=O)O)c(C)c3C2)c1 (atropisomer, axis not shown; (M)) [Example 178, (S)-2-(tert-butoxy)-2-((M)-2-(3-fluoro-5-methylbenzoyl)-6-(8-fluoro-5-methylchroman-6-yl)-4,7-dimethylisoindolin-5-yl)acetic acid]
IC50: 2 nM

COc1ccc(F)c(C(=O)N2Cc3c(C)c(-c4cc(F)c5c(c4C)CCCO5)c([C@H](OC(C)(C)C)C(=O)O)c(C)c3C2)c1 (atropisomer, axis not shown; (M)) [Example 179, (S)-2-(tert-butoxy)-2-((M)-2-(2-fluoro-5-methoxybenzoyl)-6-(8-fluoro-5-methylchroman-6-yl)-4,7-dimethylisoindolin-5-yl)acetic acid]
IC50: 4 nM

COc1cc(C(=O)N2Cc3c(C)c(-c4cc(F)c5c(c4C)CCCO5)c([C@H](OC(C)(C)C)C(=O)O)c(C)c3C2)ccc1F (atropisomer, axis not shown; (M)) [Example 180, (S)-2-(tert-butoxy)-2-((M)-2-(4-fluoro-3-methoxybenzoyl)-6-(8-fluoro-5-methylchroman-6-yl)-4,7-dimethylisoindolin-5-yl)acetic acid]
IC50: 4 nM

Cc1c(-c2c(C)c3c(c(C)c2[C@H](OC(C)(C)C)C(=O)O)CN(C(=O)c2cc(F)cc(Cl)c2)C3)cc(F)c2c1CCCO2 (atropisomer, axis not shown; (M)) [Example 181, (S)-2-(tert-butoxy)-2-((M)-2-(3-chloro-5-fluorobenzoyl)-6-(8-fluoro-5-methylchroman-6-yl)-4,7-dimethylisoindolin-5-yl)acetic acid]
IC50: 5 nM

Cc1cncc(C(=O)N2Cc3c(C)c(-c4cc(F)c5c(c4C)CCCO5)c([C@H](OC(C)(C)C)C(=O)O)c(C)c3C2)c1 (atropisomer, axis not shown; (M)) [Example 182, (S)-2-(tert-butoxy)-2-((M)-6-(8-fluoro-5-methylchroman-6-yl)-4,7-dimethyl-2-(5-methylnicotinoyl)isoindolin-5-yl)acetic acid]
IC50: 5 nM

COc1ccc(C)cc1C(=O)N1Cc2c(C)c(-c3cc(F)c4c(c3C)CCCO4)c([C@H](OC(C)(C)C)C(=O)O)c(C)c2C1 (atropisomer, axis not shown; (M)) [Example 183, (S)-2-(tert-butoxy)-2-((M)-6-(8-fluoro-5-methylchroman-6-yl)-2-(2-methoxy-5-methylbenzoyl)-4,7-dimethylisoindolin-5-yl)acetic acid]
IC50: 4 nM

Cc1c(-c2c(C)c3c(c(C)c2[C@H](OC(C)(C)C)C(=O)O)CN(C(=O)c2ccccn2)C3)cc(F)c2c1CCCO2 (atropisomer, axis not shown; (M)) [Example 184, (S)-2-(tert-butoxy)-2-((M)-6-(8-fluoro-5-methylchroman-6-yl)-4,7-dimethyl-2-picolinoylisoindolin-5-yl)acetic acid]
IC50: 2 nM

Cc1ccc(Cl)cc1C(=O)N1Cc2c(C)c(-c3cc(F)c4c(c3C)CCCO4)c([C@H](OC(C)(C)C)C(=O)O)c(C)c2C1 (atropisomer, axis not shown; (M)) [Example 185, (S)-2-(tert-butoxy)-2-((M)-2-(5-chloro-2-methylbenzoyl)-6-(8-fluoro-5-methylchroman-6-yl)-4,7-dimethylisoindolin-5-yl)acetic acid]
IC50: 4 nM
